Laboratory results taken from US6426105B1, “Use of lysophosphatidylethanolamine (18.1) and lysophosphatidylinositol to retard senescence and to enhance fruit ripening” (Wisconsin Alumni Research Foundation, priority 1997, dated 2002).

Tests used:
[1] = tested on: partially purified cabbage PLD; assay: Partially purified cabbage PLD activity assay (PEOH release from PC); conditions: for Effect of components of the LPE molecule on PLD activity: FIG. 2; for Effect of different lysophospholipids on PLD activity: FIG. 5
tomato leaves = assay: Retardation of ethephon-induced leaf senescence in tomato plants; type: in vivo, Tomato plants cv. H9144; conditions: ethephon 1000 mg/L ± lysophospholipid 50 mg/L spray; 10 to 14 days after treatment; Mean ± SE
Description: Ethephon, also known as Ethrel, (Ethrel is a trademark of Rhone-Poulenc Ag. Co. (Research Triangle Park, N.C.)) is an aqueous formulation that decomposes to ethylene and is used widely to maximize the yield of ripe tomato fruits in once-over harvesting operations. […] Tomato plants cv. H9144 were grown in a greenhouse for two and a half months to serve as sources of leaf samples. Plant were sprayed to runoff with ethephon at 1000 mg/L or with ethephon plus lysophospholipid mixtures as shown below in Table 6. Lysophospholipid solutions at 50 mg/L were prepared in 1% (v/v) ethanol and mixed with ethephon (1000 mg/L). Control plans were sprayed with ethephon alone in 1% (v/v) ethanol. Senescence of treated leaves was quantified 10 to 14 days after treatment by measuring chlorophyll and protein content.

cranberry fruits = assay: Ethylene production of postharvest cranberry fruits after LPE dip; type: in vivo, Vaccinium macrocarpon Ait. 'Stevens'; conditions: for Ethylene production, Relative %: 100 μM, control = 100
Description: However, the impact of different acyl chains of LPE on fruit senescence has not been investigated. In the present study, complementary to the effect of different acyl chains of LPE on PLD activity, the inventors investigated the effect of different acyl chains of LPE on ethylene production of cranberry fruits. Fully ripened cranberry fruits (Vaccinium macrocarpon Ait. 'Stevens') were harvested during the fall season and kept in a cold room. […] After two days, berries were incubated in a sealed glass jar for 24 hours in order to measure ethylene production. Ethylene was quantified with a gas chromatograph equipped with a flame ionization detector (Shinadzu 9AM, Shimadzu Corporation, Kyoto, Japan) (3).

[2] = tested on: membrane-associated cabbage PLD; assay: Membrane-associated PLD activity, cabbage leaf extract; type: biochemical, cabbage (Brassica oleracea L. Blue Vintage)
[3] = tested on: carnation flowering spikes; assay: Vase life of cut carnation flowers; conditions: 25 mg/L; control 27.5 ± 3.3; Mean ± SE
[4] = tested on: snapdragon flowering spikes; assay: Vase life and senescence of cut snapdragon spikes; conditions: for Spikes with Wilted Flower Florets after 7 days (% of total): 24 hr; for Spikes with Wilted Flower Florets after 7 days (% of total) / Water Content of Leaf after 18 days (Fresh wt/Dry wt): Mean ± SE; for Water Content of Leaf after 18 days (Fresh wt/Dry wt): control 5.79 ± 0.18; for Vase Life of Spikes (Days when > 50% of spikes remained marketable): control 4; for Leaf water content of spikes: 18 days after treatment; for spikes wilted after 7 days of treatment: range over tested concentrations, control 76%
soluble cabbage PLD = assay: Soluble PLD activity, cabbage leaf extract (radio-labeled PC); type: biochemical, cabbage (Brassica oleracea L. Blue Vintage)
[5] = tested on: membrane-associated castor bean PLD
tomato fruits = assay: Retardation of senescence of harvested mature green tomato fruits; type: in vivo, Lycopersicon esculentum cv. H9144; conditions: for Ethylene Production after 7 days / Rotten fruits after 3 weeks (% of total): 100 mg/L in 1% ethanol, 20 min dip; for Ethylene Production after 7 days: control 1.26 ± 0.21, Mean ± SE; for Rotten fruits after 3 weeks (% of total): control 37.2; for ethylene production relative to control: 7 days after treatment
Description: Mature green fruits of tomato (Lycopersicon esculentum cv. […]) were harvested from three month old plants. […] The control tomatoes were dipped in distilled water containing 1% ethol. After dipping, the fruits were stored at room temperature for 3 weeks. Production of ethylene gas was measured 7 days after treatment.

tomato plants/fruits = assay: Enhancement of tomato fruit ripening and stability by preharvest spray; type: in vivo, Tomato plants cv. H9478; conditions: 100 mg/L spray 10 days before harvest; for At Harvest, Partial Red fruits (weight % of total): control 13.2; for At Harvest, Green fruits (weight % of total): control 33.2; for 3 Weeks After Harvest, Soft Fruits (non marketable) (weight % of total): control 47.8; for At Harvest, Red fruits (weight % of total): control 53.6
Description: This experiment was conducted to compare the effects of […] (18:1) and LPI on fruit ripening. Tomato plants cv. […] were grown in pots for two and one-half months under fluorescent lights. […] All solutions contained 1% ethol and 0.05% […] 309 (Dow Corning Co., Midland, Mich.) as activating agents. Control plants received distilled water containing 1% ethanol and 0.05% […] 309. Fruits were harvested 10 days after treatment and graded into green, partial red, and red (indicating full ripening). […] (see Table 7).

senescing leaves = assay: Leaf chlorophyll content after eight day senescence; type: in vivo; conditions: after eight day senescence (FIG. 6)
Description: To evaluate the relative efficacy of various species of lysophospholipids in delaying senescence in leaves, treatment solutions containing lysophosphatidic acid (LPA), lysophosphatidylcholine (LPC),LPE, LPI, or water were applied to leaves. The chlorophyll content of each sample was measured by standard methods (10) after an eight day senescence. The relative chlorophyll contents were expressed as the percentage of the control.

[6] = 200 μM, PC substrate (FIG. 1, 2, 5)

CCCCCCCC/C=C\CCCCCCCC(=O)O [18:1 fatty acid]
Effect of components of the LPE molecule on PLD activity [1]: no inhibitory effect

O=P(O)(O)CCCl [Ethephon (E), ethephon]
Chlorophyll Content (tomato leaves): 3.65 ± 0.25 mg/g dry wt | Protein Content (tomato leaves): 58.8 ± 14.7 mg/g dry wt

CCCCCCCCCCCCCCCC(=O)OCC(O)COP(=O)(O)OCCN (stereo not shown) [LPE16:0]
Ethylene production, Relative % (cranberry fruits): 92.7%

CCCCCCCCCCCCCCCCCC(=O)OCC(O)COP(=O)(O)OCCN (stereo not shown) [LPE18:0]
Ethylene production, Relative % (cranberry fruits): 71.3%

CCCCCCCCCCCCCC(=O)OCC(O)COP(=O)(O)OCCN (stereo not shown) [LPE 14:0]
Ethylene production, Relative % (cranberry fruits): 100.0% | Effect on PLD activity ([1]; 40 and 200 μM, LPE with different acyl chains (FIG. 1)): very little effect

CCCCCCCC/C=C\CCCCCCCC(=O)OCC(O)COP(=O)(O)OCCN (stereo not shown) [LPE (18:1), lysophosphatidylethanolamine (18:1)]
Ratio (LPE/Control), Membrane-associated PLD, Cabbage ([2]; 200 μM): 0.59 | Membrane-associated PLD activity, Cabbage ([2]; 200 μM, control 368.8 ± 6.5, mean ±SE): 217.0 ± 13.0 nmol min^−1 mg^−1 protein | Specific activity of membrane-associated cabbage PLD, % of the control ([2]; in the presence of LPE (18:1)): 59% | Marketable Flowers after 6 days of treatment (% of total) [3]: 41.7 ± 8.3 % of total | Spikes with Wilted Flower Florets after 7 days (% of total) ([4]; 5 mg/L, control 75.5 ± 10.3): 34.5 ± 5.5 % of total | Water Content of Leaf after 18 days (Fresh wt/Dry wt) ([4]; 5 mg/L): 7.81 ± 0.22 Fresh wt/Dry wt | Spikes with Wilted Flower Florets after 7 days (% of total) ([4]; 10 mg/L): 30.0 ± 5.5 % of total | Vase Life of Spikes (Days when > 50% of spikes remained marketable) ([4]; 10 mg/L): 12 days | Spikes with Wilted Flower Florets after 7 days (% of total) ([4]; 25 mg/L): 38.7 ± 8.5 % of total | Leaf water content of spikes [4]: higher than that of LPEegg and water-treated spikes | spikes wilted after 7 days of treatment [4]: 30-39% | Ratio (LPE/Control), Soluble PLD, Cabbage (soluble cabbage PLD; 200 μM): 0.51 | Soluble PLD activity, Cabbage (soluble cabbage PLD; 200 μM, control 45.2 ± 3.5, mean ±SE): 23.1 ± 1.6 nmol min^−1 mg^−1 protein | Specific activity of soluble cabbage PLD, % of the control (soluble cabbage PLD; in the presence of LPE (18:1)): 51% | Ethylene production, Relative % (cranberry fruits): 59.6% | decrease in ethylene production (cranberry fruits; 2 days after treatment): 40% | Membrane-associated castor bean PLD activity, % of the control [5]: 31% | Membrane-associated PLD activity, Castor Bean ([5]; 200 μM): 47.0 ± 3.6 nmol min^−1 mg^−1 protein | Ratio (LPE/Control), Membrane-associated PLD, Castor Bean ([5]; 200 μM): 0.31 | Soluble castor bean PLD activity, % of the control (soluble castor bean PLD): 30% | Ratio (LPE/Control), Soluble PLD, Castor Bean (soluble castor bean PLD; 200 μM): 0.30 | Soluble PLD activity, Castor Bean (soluble castor bean PLD; 200 μM): 3.1 ± 0.1 nmol min^−1 mg^−1 protein | Ethylene Production after 7 days (tomato fruits): 0.70 ± 0.20 nl/g. hr^1 | Rotten fruits after 3 weeks (% of total) (tomato fruits): 7.7 % of total | ethylene production relative to control (tomato fruits): about half of the control | At Harvest, Partial Red fruits (weight % of total) (tomato plants/fruits): 11.7 weight % of total | At Harvest, Green fruits (weight % of total) (tomato plants/fruits): 22.9 weight % of total | 3 Weeks After Harvest, Soft Fruits (non marketable) (weight % of total) (tomato plants/fruits): 33.0 weight % of total | At Harvest, Red fruits (weight % of total) (tomato plants/fruits): 65.4 weight % of total | PLD activity, % of the control ([1]; 10 μM (FIG. 3)): 50% | PLD activity, % of the control ([1]; 40 μM, PC substrate (FIG. 1)): 16% | PLD activity, % of the control [1, 6]: 11% | Vmax ([1]; in the presence of LPE (18:1), control Vmax 20.0): 2.9 μmol min^−1 mg^−1 protein | Km ([1]; read-out: apparent Km for PLD, in the presence of LPE, substrate PC (FIG. 4)): 1700 µM | Type of PLD inhibition ([1]; substrate concentration varied (FIG. 4)): non-competitive inhibition

NCCO [ethanolamine]
Effect of components of the LPE molecule on PLD activity [1]: no inhibitory effect

Lysophosphatidylcholine [LPC]
Effect of different lysophospholipids on PLD activity [1]: did not significantly affect

lysophosphatidic acid [LPA]
PLD activity, % of the control [1, 6]: 169% | Effect of different lysophospholipids on PLD activity [1]: significantly increased PLD activity

lysophosphatidylglycerol [LPG]
Effect of different lysophospholipids on PLD activity [1]: did not significantly affect

lysophosphatidylinositol [LPI]
Marketable Flowers after 6 days of treatment (% of total) [3]: 44.2 ± 8.3 % of total | Spikes with Wilted Flower Florets after 7 days (% of total) ([4]; 5 mg/L, control 75.5 ± 10.3): 21.6 ± 7.0 % of total | Water Content of Leaf after 18 days (Fresh wt/Dry wt) ([4]; 5 mg/L): 7.57 ± 0.52 Fresh wt/Dry wt | Spikes with Wilted Flower Florets after 7 days (% of total) ([4]; 10 mg/L): 15.0 ± 11.5 % of total | Vase Life of Spikes (Days when > 50% of spikes remained marketable) ([4]; 10 mg/L): 13 days | Spikes with Wilted Flower Florets after 7 days (% of total) ([4]; 25 mg/L): 17.8 ± 7.5 % of total | Leaf water content of spikes [4]: higher than that of LPEegg and water-treated spikes | spikes wilted after 7 days of treatment [4]: 15-22% | chlorophyll content of senescing leaves (senescing leaves): much higher than leaves treated with LPA, LPC or LPEegg | Ethylene Production after 7 days (tomato fruits): 0.71 ± 0.40 nl/g. hr^1 | Rotten fruits after 3 weeks (% of total) (tomato fruits): 17.5 % of total | ethylene production relative to control (tomato fruits): about half of the control | At Harvest, Partial Red fruits (weight % of total) (tomato plants/fruits): 11.7 weight % of total | At Harvest, Green fruits (weight % of total) (tomato plants/fruits): 18.3 weight % of total | 3 Weeks After Harvest, Soft Fruits (non marketable) (weight % of total) (tomato plants/fruits): 25.6 weight % of total | At Harvest, Red fruits (weight % of total) (tomato plants/fruits): 70.1 weight % of total | PLD activity, % of the control [1, 6]: 31% | Effect of different lysophospholipids on PLD activity [1]: inhibitory effects somewhat similar to those of LPE

lysophosphatidylserine [LPS]
Effect of different lysophospholipids on PLD activity [1]: did not significantly affect

phosphatidylethanolamine [PE]
PLD activity, % of the control [1, 6]: 126%
